Source: article PMC3351436, “Direct and Allosteric Inhibition of the FGF2/HSPGs/FGFR1 Ternary Complex Formation by an Antiangiogenic, Thrombospondin-1-Mimic Small Molecule” (PLoS ONE, 2012)
Each block holds one compound with its values, some of them ahead of it.

How the values were obtained:
[1] = molecular target: T1, FGFR1 on A745 CHO flg-1A cells (Homo sapiens, UniProt P09038); assay: Binding of Eu-FGF2 to FGFR1-transfected A745 CHO flg-1A cells (HSPG-deficient); assay type: cell-based, murine
T1 construct: expressed in transfected cells; host or cells: A745 CHO (HSPG-deficient), clone flg-1A
Procedure: (§1) It was possible to discriminate between FGF2 bound to HSPGs low affinity receptors and FGF2 bound to the high affinity FGFR1, following a previously reported procedure.
(§2) Binding to low and high affinity receptors was analyzed according to [31].
Cell cultures. Wild-type CHO-K1 cells and the derived HSPG-deficient A745 CHO cell mutants, kindly provided by J. D. Esko (La Jolla, CA), were grown in Ham's F-12 medium supplemented with 10% fetal calf serum (FCS). […] Bovine aortic endothelial cells (BAEC) [30]were cultured in DMEM supplemented with 10% FCS.
(§3) Binding of FGF2 to cells. Europium-labeled FGF2 (Eu-FGF2) was prepared as previously described. Endothelial cells (BAEC), naturally expressing both HSPGs and FGFR1, CHO-K1 and FGFR1-expressing A745 CHO cells were used. Subconfluent cell cultures in 96-well plates were washed and incubated for 30 min at 277K in serum-free DMEM with 0.15% gelatin and 25mM HEPES (DMEM-gelatin). […] The plate was incubated for 2 h at 277K. Wells were washed with cold DMEM-gelatin to remove unbound FGF2, and the amount of total bound FGF2 was detected by adding DELFIA^? Enhancement Solution (100 µl, PerkinElmer), and measuring time resolved fluorescence using a Victor^3 multilabel plate reader (PerkinElmer), as described.

FGF2/heparin interaction = molecular target: T2, FGF2/heparin interaction (Homo sapiens, UniProt P09038); assay: SPR competition: FGF2 binding to surface-immobilized heparin; conditions: FGF2 150 nM injected over immobilized heparin, read-out: IC50, prevention of FGF2/heparin interaction
T2 construct: made in house
Procedure: SPR measurements were performed on a BIAcore X instrument (GE-Healthcare, WI). Heparin was immobilized onto the SPR chip as described [30], allowing the immobilization of 80 resonance units (RU) (6.0 fmol/mm^2).
Surface plasmon resonance (SPR) analysis. SPR measurements were performed on a BIAcore X instrument (GE-Healthcare, WI). Heparin was immobilized onto the SPR chip as already described [27]. Briefly, a CMD50L sensorchip (Xantec Bioanalytics, Dusseldorf, Germany) activated with 50 µl of a mixture containing 0.2 M EDC and 0.5 M NHS was coated with streptavidin. Heparin was biotinylated at its reducing end and immobilized onto the streptavidin-coated sensorchip, allowing the immobilization of 80 resonance units (RU) (6.0 fmol/mm^2 of heparin). A streptavidin-coated sensorchip was used as reference and for blank subtraction. […] After every run, the sensorchip was regenerated by injection of HBS containing 2.0 M NaCl.

FGF2/FGFR1 interaction = molecular target: T3, FGF2/FGFR1 interaction (Homo sapiens, UniProt P09038); assay: SPR competition: FGF2 binding to substrate-immobilized FGFR1; conditions: FGF2 150 nM injected over immobilized FGFR1, read-out: ID50, prevention of FGF2/FGFR1 interaction
T3 construct: purchased ReliaTech
Procedure: (§4) Each point is the mean ± SEM of 3 separate experiments. […] C) Binding of Eu-FGF2 to endothelial cells (BAEC). […] After 2 h of incubation at 298K, the cells bound to the monolayer were counted under an inverted microscope. Each point is the mean ± SEM of 3 separate experiments performed in triplicate. In B and C, black and white arrows indicate the inhibitions obtained with heparin (0.1 µg/ml) and unlabeled FGF2 (1.5 µg/ml) used as reference competitor of HSPGs and FGFR1 binding, respectively
SPR measurements were performed on a BIAcore X instrument (GE-Healthcare, WI). Heparin was immobilized onto the SPR chip as described, allowing the immobilization of 80 resonance units (RU) (6.0 fmol/mm^2). Immobilization of FGFR (13,800 RU, 42.0 fmol/mm^2), is described in the Supporting Information S1. Sensorchips coated with streptavidin or FGF-unrelated noggin protein were used for blank subtraction (respectively for heparin and FGFR-1).
Surface plasmon resonance (SPR) analysis. SPR measurements were performed on a BIAcore X instrument (GE-Healthcare, WI). Heparin was immobilized onto the SPR chip as already described. Briefly, a CMD50L sensorchip (Xantec Bioanalytics, Dusseldorf, Germany) activated with 50 µl of a mixture containing 0.2 M EDC and 0.5 M NHS was coated with streptavidin. […]

HSPGs on CHO-K1 cells = molecular target: T4, HSPGs on CHO-K1 cells (Homo sapiens, UniProt P09038); assay: Binding of Eu-FGF2 to wild-type CHO-K1 cells (expressing HSPGs but not FGFR1); assay type: cell-based
T4 construct: endogenous in cells; host or cells: CHO-K1
Procedure: as §1, §2, §3

[2] = molecular target: T5, HSPGs low affinity receptors on BAEC (Homo sapiens, UniProt P09038); assay: Binding of Eu-FGF2 to endothelial cells (BAEC), low affinity receptors; assay type: cell-based, bovine; conditions: Eu-FGF2 10 ng/ml
T5 construct: endogenous in cells; host or cells: BAEC
Procedure: as §1, §2, §3

[3] = molecular target: T6, high affinity FGFR1 on BAEC (Homo sapiens, UniProt P09038); assay: Binding of Eu-FGF2 to endothelial cells (BAEC), high affinity receptors; assay type: cell-based, bovine; conditions: Eu-FGF2 10 ng/ml, after 2 M NaCl wash
T6 construct: endogenous in cells; host or cells: BAEC
Procedure: as §1, §2, §3

FGF2/FGFR1/HSPGs complex = molecular target: T7, FGF2/FGFR1/HSPGs complex (Homo sapiens, UniProt P09038); assay: FGF2-mediated cell-cell adhesion assay (A745 CHO flg-1A cells on CHO-K1 monolayer); assay type: cell-based; conditions: FGF2 1.66 nM, 2 h incubation, serum-free medium; read-out: ID50, inhibition of FGF2-mediated cell-cell adhesion
T7 construct: expressed in transfected cells; host or cells: A745 CHO flg-1A cells on fixed CHO-K1 monolayer
Procedure: as §4
To exert its pro-angiogenic activity, FGF2 needs to set up a productive, ternary complex with HSPGs and FGFR1 [32].
Data are mean bound cells in three random microscopic fields.
FGF2-mediated cell-cell adhesion assay: This assay was performed as described previously, with minor modifications. Briefly, monolayers of wild-type CHO-K1 cells were washed with PBS and fixed with 3% glutaraldehyde in PBS for 2 h at 277K followed by washing with 0.1 M glycine, and PBS. […] After 2 h of incubation at 310K, unattached cells were removed by PBS washing and A745 CHO flg-1A cells bound to the CHO-K1 monolayer were counted under an inverted microscope at ×125 magnification. Data are expressed as the mean of the cell counts of three microscopic fields chosen at random. All experiments were performed in triplicate and repeated twice.

FGF2 = molecular target: T8, FGF2 (Homo sapiens, UniProt P09038, A136E/C211S/C229S/S138E); assay: NMR 15N-1H HSQC titration of sm27 into FGF2; assay type: binding; conditions: 0:1 to 4:1 sm27:FGF2, pH 5.5, 298 K
T8 construct: purchased ASLA (Riga, Latvia)
Procedure: All NMR data were collected on a Bruker DMX 500 MHz spectrometer at 298 K.
NMR samples contained 0.57 mM ^15N-labeled FGF2, dissolved in a buffer containing 50 mM potassium phosphate, 2 mM NaN3, and 10 mM deuterated DTT in 90% H2O/10% D2O, pH 5.5. […] At molar ratios higher than 1:1, partial sample precipitation was observed, till full sample precipitation at nominal 4:1 ratio. […] Due to the precipitation it was not possible to reach the plateau of the titration and to estimate the real stoichiometric ratio at each step.

endothelial cells [4] = tested on: endothelial cells; parameters: method as in PMID 20056600; conditions: cited from earlier work
endothelial cells [5] = tested on: endothelial cells; parameters: method as in PMID 20056600; conditions: cited from earlier work; remark: listed apart in the source
[6] = tested on: chicken chorioallantoic membrane; parameters: method as in PMID 20056600; conditions: chicken chorioallantoic membrane assay; cited from earlier work

T1 sequence (P09038 134-288): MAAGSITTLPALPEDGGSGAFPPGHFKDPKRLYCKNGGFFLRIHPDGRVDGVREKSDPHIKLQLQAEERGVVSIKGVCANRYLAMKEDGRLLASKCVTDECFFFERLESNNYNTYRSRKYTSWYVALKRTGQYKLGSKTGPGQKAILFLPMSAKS
T4 sequence (P09038 134-288): as above
T3 sequence (P09038 134-288): as above
T7 sequence (P09038 134-288, one chain of several): as the sequence (P09038 134-288) above
T2 sequence (P09038 134-288): as above
T6 sequence (P09038 134-288): as above
T5 sequence (P09038 134-288): as above
T8 sequence (P09038 134-288 A136E/S138E/C211S/C229S): as the sequence (P09038 134-288) above, with A3E, S5E, C78S, C96S counted along it

Effect of reference competitor on Eu-FGF2 binding to FGFR1 ([1]; FGFR1-CHO cells, unlabeled FGF2 1.5 µg/ml): inhibitory activity
Compound: unlabelled FGF2: Human recombinant FGF2, unlabeled, reference competitor of FGFR1 binding [reference compound]

Compound: O=C(Nc1ccc2cc(S(=O)(=O)O)cc(O)c2c1)Nc1ccc2cc(S(=O)(=O)O)cc(O)c2c1 [sm27, 4-hydroxy-6-((((8-hydroxy-6-sulfo-2-naphthyl)amino)carbonyl)amino)-2-naphthalenesulfonic acid]
IC50 (FGF2/heparin interaction): 3.5 µM
IC50 (FGF2/FGFR1 interaction): 4 µM
Effect on Eu-FGF2 binding to HSPGs (HSPGs on CHO-K1 cells; Eu-FGF2 10 ng/ml): inhibited
Effect on Eu-FGF2 binding to FGFR1 ([1]; A745 CHO flg-1A cells, Eu-FGF2 10 ng/ml): inhibited
Effect on FGF2 binding to HSPGs low affinity receptors [2]: inhibited
Effect on FGF2 binding to high affinity FGFR1 [3]: inhibited
IC50 (FGF2/FGFR1/HSPGs complex): 1000 nM
Binding to FGF2 judged from the NMR titration (exchange regime) (FGF2): weak binding
Effect on binding of FGF2 to endothelial cells (endothelial cells [4]): prevented
Effect on FGF2-induced endothelial cell proliferation (endothelial cells [5]): inhibited
Effect on FGF2-induced angiogenesis [6]: inhibited

Effect of reference competitor on Eu-FGF2 binding to HSPGs (HSPGs on CHO-K1 cells; heparin 0.1 µg/ml): inhibitory activity
Compound: heparin [reference compound]
